According to ChEMBL document CHEMBL1159002, “Westiellamide, a bistratamide-related cyclic peptide from the blue-green alga Westiellopsis prolifica” (J Nat Prod, 1992):
Active and inactive are the calls of the source. The calls are words filed in the database; no cut-off is given here.

Columns and labels:
Assay type in all cases: functional, cell-based
[1] = test system: L1210; test: Cytotoxicity against mouse L1210 cells by agar disk diffusion assay
[2] = test system: LoVo; test: Cytotoxicity against human LoVo cells at 2 ug/ml
[3] = test system: KB; test: Cytotoxicity against human KB cells at 2 ug/ml

In the case of `CC(C)[C@@H]1NC(=O)[C@H]2N=C(O[C@@H]2C)[C@H](C(C)C)NC(=O)[C@H]2N=C(O[C@@H]2C)[C@H](C(C)C)NC(=O)[C@H]2N=C1O[C@@H]2C`, the Activity [1] is reported as “inactive”, the Activity [2] is reported as “Active” and the Activity [3] is reported as “Active”.
